From patent US9724337B2, “AG-205 for the treatment of breast cancer” (University of Kentucky Research Foundation, priority 2009, dated 2017)

Tests used:
H1650 = assay: AG-205 viability assay in H1650 cells; format: cell-based
Method: (§1) Tissue culture. MDA-MB-468 cells were a kind gift from Dr. Rina Plattner of the University of Kentucky and were maintained in medium consisting of Dulbecco's Modified Eagle Medium containing 10% serum supreme (Fisher) and antibiotics. Cells were grown at 37° C. in 5% CO2 in air. A549 and HCC827 lung cancer cells, as well as SK-Br-3 breast cancer cells were obtained from the ATCC (American Type Culture Collection) and were grown under the same conditions. The H1650 lung cancer cell line was a kind gift from Dr. Heinz Kohler of the University of Kentucky. The Pgrmc1 ligand AG-205 was purchased from Timtec, Inc. The EGFR inhibitor AG1478 was from Biomol, Inc. and was used at a concentration range of 0.8-40 μM.
Proliferation, anchorage-independent growth and migration assays. For growth curves, cells were plated in 24 well dishes and grown in 10% serum-containing medium. […] Following the harvest of the final time point, the cells from each time point were counted using a Bright-line hemocytometer (Hausser Scientific).
(§2) MTT viability assays were performed as described previously. […] The cells were then incubated with 0.5 mg/ml of 3-[4,5-dimethylthiazol-2-y]-2,5-diphenyltetrazolium bromide for 1.5 hours, at which time the media was removed, the precipitated crystals were dissolved in dimethyl sulfoxide, and the absorbance at 590 nm was measured using a Bio-Tek μQuant spectrophotometer.

H157 = assay: AG-205 viability assay in H157 cells; format: cell-based; details: H157, lung, serum-starved, EGFR wild-type
Method: (§3) Proliferation, anchorage-independent growth and migration assays. For growth curves, cells were plated in 24 well dishes and grown in 10% serum-containing medium. At various times, the cells were harvested with trypsin and fixed with formaldehyde added to a final concentration of 3.7%. Following the harvest of the final time point, the cells from each time point were counted using a Bright-line hemocytometer (Hausser Scientific).
(§4) MTT viability assays were performed as described previously. Briefly, cells were plated in 96-well tissue culture dishes and grown in various media with different drug doses. The cells were then incubated with 0.5 mg/ml of 3-[4,5-dimethylthiazol-2-y]-2,5-diphenyltetrazolium bromide for 1.5 hours, at which time the media was removed, the precipitated crystals were dissolved in dimethyl sulfoxide, and the absorbance at 590 nm was measured using a Bio-Tek μQuant spectrophotometer.

A431 = assay: AG-205 viability assay in A431 cells; format: cell-based; details: A431, epitheloid, serum-starved, EGFR wild-type
MDA-MB-231 = assay: AG-205 viability assay in MDA-MB-231 cells; format: cell-based; details: MDA-MB-231, breast, serum-starved, EGFR wild-type
Method: (A) Pgrmc1 (SEQ ID NO: 7) shares homology with AtMAPR2 (SEQ ID NO: 8) (underlined residues), which was the target for a screen for small molecule ligands. The putative heme-binding Tyr106 and Tyr112 are indicated with black boxes. (B) The molecular structure of AG-205 includes multiple aromatic components. (C) Spectroscopic scan of Pgrmc1 with vehicle control compared with vehicle plus 50 µM AG-205. The decrease in relative absorbance at 400 nm is consistent with an AG-205-induced change in the spectral properties of Pgrmc1-heme. The scan is representative of four separate scans using different Pgrmc1 protein preparations. […] Percent viability was determined by cell counting, and “% viability” refers to the cell number relative to the untreated control.
Proliferation, anchorage-independent growth and migration assays. […] Following the harvest of the final time point, the cells from each time point were counted using a Bright-line hemocytometer (Hausser Scientific).
as §2

ku70 [1] = assay: Western blot of ku70 levels in MDA-MB-468 cells; format: cell-based, human; details: AG-205 treatment
Method: (§5) Panel A is a diagram indicating the positions of the siRNA molecules targeting Pgrmc1. Exons 1, 2 and 3 are indicated by “ex”. MDA-MB-468 cells were transfected with a control siRNA (siCON, lanes 1 and 3) or two separate siRNAs targeting Pgrmc1 (siPGR and siPGR2, lanes 2 and 4, respectively). In panels B-E and H-L, protein levels were analyzed by western blot for EGFR (B), phospho-tyrosine (C), Pgrmc1 (D) and ku70 (E), as a control for protein loading. Panels F—H show western blot analyses for (F) IGF-1R, (G) c-Kit and (H) tfR. In panels I and J, transcript levels were analyzed by reverse transcriptase-PCR for EGFR (I) and Pgrmc1 (J). The top band indicates the gene of interest, while actin primers were included in the same reaction as a control for cDNA loading. […] In panels K-L, MDA-MB-468 cells were treated with increasing doses of the Pgrmc1 ligand AG-205. Protein expression was analyzed by western blot for EGFR (K) and ku70 (L). Cells were treated with 0 (lanes 1), 2 (lanes 2), 10 (lanes 3) or 50 (lanes 4) μM AG-205 for 24 hours in serum-free medium. In panels M-N, A549 cells were treated with the same doses and analyzed for EGFR (M) and ku70 (N). […] Expression analyses were repeated at least in duplicate throughout.
(§6) Immunological techniques. […]

AtMAPR2 = biological target: T1, AtMAPR2 (Arabidopsis thaliana, UniProt Q9SK39); details: in silico screen then binding assay, 2005; cited from earlier work
T1 sequence (Q9SK39 1-100): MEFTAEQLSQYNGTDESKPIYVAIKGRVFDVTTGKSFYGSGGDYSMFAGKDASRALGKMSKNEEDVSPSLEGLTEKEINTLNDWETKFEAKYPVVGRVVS

[2] = test system: Met receptor tyrosine kinase; assay: Western blot of Met in A549 cells; format: cell-based, human
Method: Immunological techniques. Cells were extracted in RIPA buffer (50 mM Tris, pH 8.0, 1% Nonidet P-40, 150 mM NaCl, 0.5% sodium deoxycholate, 0.1% sodium dodecyl sulfate, 1 mM phenylmethylsulfonyl fluoride, 10 μg/ml of aprotinin, leupeptin and pepstatin) for standard western blotting. The antibodies used in the study were anti-caveolin-1 (N-20, Santa Cruz Biologicals, # sc-894), anti-EGFR (1005, Santa Cruz, # sc-03), anti-ku70 (A-9, Santa Cruz # sc-5309), anti-Met (C-12, Santa Cruz # sc-10), anti-PARP (H-250, Santa Cruz # sc-7150), anti-phosphotyrosine (P-Tyr-100, Cell Signaling), anti-Pgrmc1 (Novus Biologics) and anti-tubulin (Neomarkers). Some western blots for Pgrmc1 were performed with a polyclonal antibody called anti-PGR-UK1 which was raised in rabbits to an internal 10 amino acid peptide.

H358 = assay: AG-205 viability assay in H358 cells; format: cell-based; details: H358, lung, serum-starved, EGFR wild-type
Method: as §3, §4

SK-Br-3 cells = assay: Growth inhibition of SK-Br-3 cells; format: cell-based; details: modest EGFR, extremely high HER2/neu
Method: as §1

ku70 [3] = assay: Western blot of ku70 in A549 cells; format: cell-based, human
Method: as §5, §6

NIH-3T3 cells = assay: Growth inhibition of NIH-3T3 cells; format: cell-based; details: wild-type EGFR
[4] = test system: cancer cell lines from lung, breast, colon and prostate tissues; assay: Toxicity to multiple cancer cell lines; format: cell-based; details: most active when serum is absent
A549 cells = assay: Viability of A549 cells; format: cell-based, human
Method: (A) Pgrmc1 (SEQ ID NO: 7) shares homology with AtMAPR2 (SEQ ID NO: 8) (underlined residues), which was the target for a screen for small molecule ligands. The putative heme-binding Tyr106 and Tyr112 are indicated with black boxes. (B) The molecular structure of AG-205 includes multiple aromatic components. (C) Spectroscopic scan of Pgrmc1 with vehicle control compared with vehicle plus 50 µM AG-205. The decrease in relative absorbance at 400 nm is consistent with an AG-205-induced change in the spectral properties of Pgrmc1-heme. The scan is representative of four separate scans using different Pgrmc1 protein preparations. The lower scan is a comparison of purified Pgrmc1 without and with the vehicle control (DMSO). Panels D (A549 cells) and E (MDA-MB-231 cells) are viability assays of cells maintained in 0.1% serum (solid line) or 10% serum (dashed line) and treated with increasing doses of AG-205. Percent viability was determined by cell counting, and “% viability” refers to the cell number relative to the untreated control.
as §1, §3, §4

Cc1ccc2c(c1)[C@H]1CN(C)CC[C@H]1N2C(=O)CSc1nnnn1-c1ccc(Cl)cc1 [AG-205]
IC50 (H1650; H1650, lung, serum-starved, EGFR ΔE746-A750): > 100 µM
sensitivity to growth inhibition (H1650; H1650 cells, ΔE746-A750 EGFR): relatively insensitive
IC50 (H157): 10 µM
IC50 (A431): 8 µM
IC50 (MDA-MB-231): 18 µM
Ku70 levels (ku70 [1]): not affected
binding to At Pgrmc1 (AtMAPR2) (AtMAPR2): bind to At Pgrmc1
stability of Met receptor tyrosine kinase [2]: little effect
IC50 (H358): 12 µM
sensitivity to growth inhibition (SK-Br-3 cells): relatively insensitive
ku70 levels (ku70 [3]): unaffected
growth inhibition (NIH-3T3 cells): inhibited
toxicity to cancer cell lines [4]: toxic to multiple cancer cell lines
IC50 (A549 cells; A549, lung, serum-starved, EGFR wild-type, read-out: IC50 values for AG-205, Serum-starved): 15 µM
cell viability (A549 cells; A549 cells, 20 μM dose, 72-96 hours after treatment): marked loss of viability
decrease in viability / cells killed (A549 cells; A549 cells, single agent): 47%
cell growth inhibition (A549 cells; A549 cells, wild-type EGFR): efficiently inhibited cell growth
toxicity in Pgrmc1-inhibited A549 cells (A549 cells; Pgrmc1-inhibited versus control A549 cells, after 36 hours, P=0.0001): decreased toxicity
